Experimental data reported in patent publication US20100204202A1, “DRUG FOR ALLEVIATING MOTOR COMPLICATIONS OR PSYCHIATRIC SYMPTOMS OF PARKINSON'S DISEASE” (Asubio Pharma Co., Ltd., priority 2007, published 2010).
Read-outs that look alike come from different tables or passages of the source.

Assays:
[1] = target: T1, rat serotonin 1A receptors (Rattus norvegicus, UniProt P19327); test: Adenylate cyclase inhibition test via rat serotonin 1A receptors (full agonist-partial agonist judgment test), rat hippocampus membranes; type: biochemical; conditions: for inhibition: read-out: maximum inhibitory reaction of adenylate cyclase activity
T1 construct: Each rat was decapitated and the hippocampus was quickly removed; from tissue; host or cells: hippocampus of male Wistar rats
T1 sequence (P19327 1-422): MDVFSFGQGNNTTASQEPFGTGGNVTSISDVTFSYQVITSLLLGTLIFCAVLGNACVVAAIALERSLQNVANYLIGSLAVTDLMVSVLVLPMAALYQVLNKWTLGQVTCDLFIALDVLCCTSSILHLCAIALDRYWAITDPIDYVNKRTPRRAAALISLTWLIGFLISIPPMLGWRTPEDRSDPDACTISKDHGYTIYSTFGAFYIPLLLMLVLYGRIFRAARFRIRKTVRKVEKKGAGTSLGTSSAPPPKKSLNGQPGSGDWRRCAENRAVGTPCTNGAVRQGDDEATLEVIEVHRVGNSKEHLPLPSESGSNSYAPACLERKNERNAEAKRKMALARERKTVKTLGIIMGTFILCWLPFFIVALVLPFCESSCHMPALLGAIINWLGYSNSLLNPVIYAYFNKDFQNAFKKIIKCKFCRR
Protocol: For the test, Wistar male rats supplied by Shimizu Laboratory Supplies were used (9 to 15 weeks old). Each rat was decapitated and the hippocampus was quickly removed. It was homogenized in 10 volumes of buffer (i.e., 25 mM Tris-HCl, 1 mM EGTA, 5 mM EDTA, 5 mM DTT, 300 mM sucrose, 100 KIU/ml aprotinin, pH 7.4). This was then centrifuged at 500×g, 4° C. for 5 minutes, the supernatant was further centrifuged at 39,000×g, 4° C. for 10 minutes, and the residue was used as the rat hippocampus membrane specimen. The rat hippocampus membrane specimen was diluted by a buffer to 20 to 90 μg/mL of protein, then 50 μL of this cell membrane suspension was added to a 200 μL assay buffer containing each test sample (25 mM Tris-HCl, 100 mM NaCl, 2 mM MgCl2. 0.25 mM ATP, 5 mM phosphocreatine, 10 μg/mL creatine phosphokinase, 0.2 mM IBMX, 10 μM GTP, 10 μM forskolin, pH 7.4) and allowed to react at 30° C. for 5 minutes. 0.2N HCl was added in 250 μL to stop the reaction, then the cAMP produced was assayed by the radioimmunoassay method. […] Note that the adenylate cyclase activity was measured using as an indicator the amount of cAMP produced by the same enzyme. The rate of inhibition by the serotonin 1A receptor agonist was found using the amount of production due to forskolin (10 μM) stimulus as 100%.

[2] = test system: Parkinson's disease model rats; test: Hyperkinesia of the forelimbs and shortening of rotational behavior duration induced by repeated doses of levodopa; type: in vivo, rat
Source text: In rats with unilateral nigrostriatal dopamine nerve destruction generally used as Parkinson's disease animal models, it became clear that by administering levodopa by repeated dosage for about 5 weeks, behavior resembling the symptoms of advanced stage Parkinson's disease appeared. That is, in Parkinson's disease model rats prepared in the same way as in Example 4, along with repeated doses of levodopa, abnormal behavior such as involuntary extending of the forelimb or opening or closing of the hand, up-and-down movement of the wrist, choreiform tremor in the forelimb on the opposite side of microinjection of 6-hydroxydopamine was observed (FIG. 3). This abnormal behavior is reported by Steece-Collier et al. (Steece-Collier K. et al., “Embryonic mesencephalic grafts increase levodopa-induced forelimb hyperkinesia in parkinsonian rats”, Movement Disorders, 2003, 18, p. 1442-1454) as hyperkinesia of the forelimbs.
This appears dependent on the period of repeated doses of levodopa and reportedly is similar to clinical dyskinesia. […] Bibbiani et al. (Bibbiani F. et al., “Serotonin 5-HT1A agonist improves motor complications in rodent and primate parkinsonian models”, Neurology, 2001, 57, p. 1829-1834) report that in Parkinson's disease model rats, along with repeated doses of levodopa, a shortening of the rotational behavior duration is observed and that this phenomenon resembles the wearing off phenomenon in clinical studies.
That is, they treated each group by repeated doses of levodopa and repeated dosage of the tested substance for about 2 weeks (Monday to Friday) and observed the hyperkinesia of the forelimbs and rotational behavior after levodopa administration. Note that the SUN N4057 was subcutaneously administered right before levodopa administration, the sarizotan was orally administered about 20 minutes before levodopa dosage in accordance with above-mentioned known reports (Bibbiani F. et al., Neurology, 2001, 57, p. 1829-1834), and the Example Compound 4 of Japanese Patent Publication No. 2005-298402A was subcutaneously administered about 30 minutes before levodopa dosage in accordance with the above-mentioned Japanese Patent Publication No. 2005-298402A. Further, for the solvent, for SUN N4057 and Example Compound 4 of Japanese Patent Publication No. 2005-298402A, physiological saline was used.
In the same way as Example 4, Parkinson's disease model rats were prepared and the rats treated by repeated doses of levodopa (twice a day, Monday to Friday) for 5 weeks and measured for hyperkinesia of the forelimbs and rotational behavior. Further, based on the results of the hyperkinesia of the forelimbs and rotational behavior duration, the rats were assigned to the groups so as to prevent any significant difference between them, then the effects of the tested substances on these behaviors resembling symptoms of advanced stage Parkinson's disease patients were compared and studied. […] Note that compound Ib (0.3, 1 mg/kg) and compound Ic (0.3, 1 mg/kg) were both intraperitoneally administered right before levodopa administration. For the solvent, physiological saline was used.

rats [3] = test: Amount of locomotor activity; type: in vivo, rat; conditions: 10 mg/kg i.p.; minutes 0-5
Source text: For the test, Crl: CD(SD) male rats supplied by Charles River Japan were used (6 weeks old at start of test). For the forced swimming test, the method of the improved type reported by Lucki et al. (Lucki I., “The forced swimming test as a model for core and component behavioral effects of antidepressant drugs”, Behavioural Pharmacology, 1997, 8, p. 523-532; Cryan J. F. et al., “Assessing antidepressant activity in rodents: recent developments and future needs”, TRENDS in Pharmacological Sciences, 2002, 23, p. 238-245) was used. On day 1, each rat was placed in a cylinder filled with water (height 45 cm×diameter 30 cm, water depth 30 cm, water temperature 23° C., water depth set to depth by which back legs and tail of rat will not touch the bottom). The rat was taken out after 15 minutes. At this time, the immobility period (seconds) of minutes 10-15 (5 minutes) was recorded. Based on the results, the rats were assigned to five groups so that there would be no difference among the groups. On day 2, each rat was placed in a cylinder filled with water the same as day 1 and the immobility period (seconds), swimming behavior period (seconds), and climbing behavior period (seconds) of minutes 0-5 (5 minutes) were measured. […]

rats [4] = test: Forced swimming method (anti-depressive action); type: in vivo, rat; conditions: 10 mg/kg i.p.
Source text: For the test, Crl: CD(SD) male rats supplied by Charles River Japan were used (6 weeks old at start of test). For the forced swimming test, the method of the improved type reported by Lucki et al. (Lucki I., “The forced swimming test as a model for core and component behavioral effects of antidepressant drugs”, Behavioural Pharmacology, 1997, 8, p. 523-532; Cryan J. F. et al., “Assessing antidepressant activity in rodents: recent developments and future needs”, TRENDS in Pharmacological Sciences, 2002, 23, p. 238-245) was used. On day 1, each rat was placed in a cylinder filled with water (height 45 cm×diameter 30 cm, water depth 30 cm, water temperature 23° C., water depth set to depth by which back legs and tail of rat will not touch the bottom). The rat was taken out after 15 minutes. At this time, the immobility period (seconds) of minutes 10-15 (5 minutes) was recorded. Based on the results, the rats were assigned to five groups so that there would be no difference among the groups. On day 2, each rat was placed in a cylinder filled with water the same as day 1 and the immobility period (seconds), swimming behavior period (seconds), and climbing behavior period (seconds) of minutes 0-5 (5 minutes) were measured. Note that the immobility period was defined as the minimum extent of movement for the rat to hold its head above the water, the swimming behavior as the swimming behavior circling around the inside of the cylinder in the horizontal direction, and the climbing behavior as the climbing behavior moving the forelimbs in the vertical direction along the cylinder walls to try to climb them. The tested substance was intraperitoneally administered 15 minutes after the end of swimming on day 1, and 4 hours and 30 minutes before swimming on day 2. Further, for the amount of locomotor activity, a measuring system (shape 48.8×48.8×30 cm, vertical 8 fractions, horizontal 8 fractions, for total of 64 fractions, Biomedica) set in a blacked out soundproof box was used to record the amount of locomotor activity of the rats at minutes 0-15 (15 minutes). Note that the dosages and timings of administration of the tested substances were set in the same way as the forced swimming test and the substance were intraperitoneally administered 24 hours, 4 hours, and 30 minutes before measurement of the amount of locomotor activity.

For CCCN(CCC)[C@@H]1CCc2cccc(O)c2C1 [8-OH-DPAT, (R)-(+)-8-hydroxy-2-(di-n-propylamino)tetraline], the inhibition [1] was 32%.

With Cl.O=C1c2ccccc2OC=C(Cl)N1CCCCN1CC=C(c2ncccn2)CC1 [compound Ib, 3-chloro-4,5-dihydro-4-{4-[4-(2-pyrimidinyl)-1,2,3,6-tetrahydropyridin-1-yl]butyl}-1,4-benzoxazepin-5-one hydrochloride] the rotational behavior duration ([2]; 0.3, 1 mg/kg i.p. repeated 2 weeks) was “tended to be prolonged” and the “hyperkinesia of the forelimbs” value ([2]; 0.3, 1 mg/kg i.p. repeated 2 weeks, 30 minutes and 1 hour after levodopa dosage) was “significantly inhibited”.

With Cc1ccnc(C2=CCN(CCCCN3C(=O)c4ccccc4OC=C3Cl)CC2)n1.O=C(O)/C=C/C(=O)O [compound Ic, 3-chloro-4,5-dihydro-4-(4-{4-[(4-methyl)-2-pyrimidinyl]-1,2,3,6-tetrahydropyridin-1-yl}butyl)-1,4-benzoxazepin-5-one fumarate] the “hyperkinesia of the forelimbs” value ([2]; 0.3 mg/kg i.p. repeated 2 weeks, 30 minutes after levodopa dosage) was “significantly inhibited”, the rotational behavior duration ([2]; 1.0 mg/kg i.p. repeated 2 weeks) was “significantly prolonged” and the “hyperkinesia of the forelimbs” value ([2]; 1.0 mg/kg i.p. repeated 2 weeks, 30 minutes and 1 hour after levodopa dosage) was “significantly inhibited”.

For CNCCCN1c2ccccc2CCc2ccccc21 [desipramine], the “amount of locomotor activity” value (rats [3]) was “decline”, the climbing behavior period (rats [4]) was “significant increase” and the immobility period (rats [4]; minutes 0-5 on day 2) was “significant shortening of the immobility period”.

O=C1c2ccccc2S(=O)(=O)N1CCCCN1CCN(c2ncccn2)CC1 [ipsapirone] gave an IC50 ([1]; forskolin (10 μM) stimulated, rat hippocampus membranes, read-out: IC50 of adenylate cyclase inhibition (for the maximum reaction)) of 39 nM and an inhibition ([1]; forskolin (10 μM) stimulus = 100%, rat hippocampus membranes) of 19%.
